Legend:
[1] = system: mouse receptors Olfr1193, Olfr1093, Olfr1097, Olfr166, Olfr169, Olfr738, Olfr742 and human odorant receptor OR4S2; experiment: cAMP HTRF dose-response assay, DMTS/DMDS response profiles (Example 5); type: cell-based; conditions: increasing concentration of compound; relative to butyric acid control
Protocol: (§1) Functional dose-response experiments were performed to evaluate the level of DMTS activity of the modified cell line expressing individual putative DMTS receptors. Using a cell-based assay, mouse receptor Olfr1193, Olfr1093, Olfr1097, Olrf166, Olfr169, Olfr738 and Olfr742, and human receptor OR4S2 and OR52N5 were tested in an HEK293T cell line wherein the endogenous RTP1 gene has been activated and the odorant receptor chaperone protein was expressed (described in WO2016/201153). The mouse receptor genes were tagged with a Lucy-FLAG®-Rho tag combination and the human receptors were tagged with a Rho-FLAG® tag combination resulting in a tag:receptor fusion protein for the cell based assay. Receptor genes were co-transfected with the canonical olfactory human G-protein alpha subunit Golf gene and were exposed to increasing concentrations of the malodor odorant. Co-expression of the human Golf activates the Gs transduction pathway that leads to an internal cAMP increase upon binding to the appropriate ligand. Odorant-induced activity was detected by measuring the cAMP increase in the cytosol using an Homogeneous Time Resolved Fluorescence (HTRF) based kit (CisBio, cAMP dynamic 2 kit, cat. 62AM4PEJ). […]

[2] = system: cells that do not express the odorant receptors (HEK293T); experiment: Mock transfection control experiment (Example 5); type: cell-based
Protocol: as §1

[3] = target: T1, mouse receptor Olfr1093 (Mus musculus, UniProt B2RR12); experiment: cell-based dose-response, cAMP increase by HTRF, HEK293T cells (endogenous RTP1 activated) co-transfected with human Golf, Lucy-FLAG-Rho tagged receptor; conditions: FIG. 5, Example 5, SEQ ID NO: 4
T1 construct: cAMP HTRF
T1 sequence (B2RR12 1-322): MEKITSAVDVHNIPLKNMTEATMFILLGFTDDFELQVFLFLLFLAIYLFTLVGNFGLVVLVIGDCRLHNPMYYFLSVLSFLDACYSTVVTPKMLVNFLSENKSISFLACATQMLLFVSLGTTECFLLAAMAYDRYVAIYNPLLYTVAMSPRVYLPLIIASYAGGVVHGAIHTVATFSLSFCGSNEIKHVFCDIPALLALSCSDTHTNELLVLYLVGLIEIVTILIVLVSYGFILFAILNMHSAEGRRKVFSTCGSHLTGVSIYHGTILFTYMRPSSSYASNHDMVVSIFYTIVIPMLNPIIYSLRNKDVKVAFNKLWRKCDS
Protocol: (§2) Functional dose-response experiments were performed to evaluate the level of DMTS activity of the modified cell line expressing individual putative DMTS receptors. Using a cell-based assay, mouse receptor Olfr1193, Olfr1093, Olfr1097, Olrf166, Olfr169, Olfr738 and Olfr742, and human receptor OR4S2 and OR52N5 were tested in an HEK293T cell line wherein the endogenous RTP1 gene has been activated and the odorant receptor chaperone protein was expressed (described in WO2016/201153). The mouse receptor genes were tagged with a Lucy-FLAG®-Rho tag combination and the human receptors were tagged with a Rho-FLAG® tag combination resulting in a tag:receptor fusion protein for the cell based assay. Receptor genes were co-transfected with the canonical olfactory human G-protein alpha subunit Golf gene and were exposed to increasing concentrations of the malodor odorant. Co-expression of the human Golf activates the Gs transduction pathway that leads to an internal cAMP increase upon binding to the appropriate ligand. Odorant-induced activity was detected by measuring the cAMP increase in the cytosol using an Homogeneous Time Resolved Fluorescence (HTRF) based kit (CisBio, cAMP dynamic 2 kit, cat. 62AM4PEJ). […] The activity levels are reported by the potency of the DMTS induced-response for each receptor as a measure of the EC50 value (the effective concentration at which the receptor responds at its half-maximal activation efficacy level for a given compound).
(§3) Functional dose-response experiments were performed to confirm the DMTS activity on the DMTS receptors identified in Example 2 and to further characterize their response to DMDS. Using the same cell-based assay described in Example 2, mouse receptors Olfr1193, Olfr1093, Olfr1097, Olfr166, Olfr169, Olfr738, Olfr742 and of human odorant receptor OR4S2 were tested with increasing concentration of DMTS, DMDS or butyric acid (control). […] A weak response for OR4S2 and Olfr169 to butyric acid was visible but was too weak to consider butyric acid as a representative ligand for these receptors. The activity levels are reported by the potency of DMTS or DMDS induced-response for each receptor as a measure of the EC50 value, EC50DMTS and EC50DMDS respectively. […] Competitive antagonists at the malodor binding site of these receptors have the potential to reduce the unpleasant perception of both DMTS and DMDS.

[4] = target: T2, mouse receptor Olfr1097 (Mus musculus, UniProt Q8VGA2); experiment: as above; conditions: FIG. 5, Example 5, SEQ ID NO: 6
T2 construct: cAMP HTRF
T2 sequence (Q8VGA2 1-315): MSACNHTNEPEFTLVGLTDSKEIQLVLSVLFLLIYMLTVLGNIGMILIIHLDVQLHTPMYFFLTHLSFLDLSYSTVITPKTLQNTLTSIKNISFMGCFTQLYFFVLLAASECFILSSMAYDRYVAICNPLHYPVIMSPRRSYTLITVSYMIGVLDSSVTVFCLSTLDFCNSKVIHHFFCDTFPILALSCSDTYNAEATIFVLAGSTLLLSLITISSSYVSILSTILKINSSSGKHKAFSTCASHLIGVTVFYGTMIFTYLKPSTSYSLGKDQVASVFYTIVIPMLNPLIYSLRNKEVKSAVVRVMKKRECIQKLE
Protocol: as §2, §3

[5] = target: T3, mouse receptor Olfr1193 (Mus musculus, UniProt A2AV13); experiment: as above; conditions: FIG. 5, Example 5, SEQ ID NO: 2
T3 construct: cAMP HTRF
T3 sequence (A2AV13 1-318): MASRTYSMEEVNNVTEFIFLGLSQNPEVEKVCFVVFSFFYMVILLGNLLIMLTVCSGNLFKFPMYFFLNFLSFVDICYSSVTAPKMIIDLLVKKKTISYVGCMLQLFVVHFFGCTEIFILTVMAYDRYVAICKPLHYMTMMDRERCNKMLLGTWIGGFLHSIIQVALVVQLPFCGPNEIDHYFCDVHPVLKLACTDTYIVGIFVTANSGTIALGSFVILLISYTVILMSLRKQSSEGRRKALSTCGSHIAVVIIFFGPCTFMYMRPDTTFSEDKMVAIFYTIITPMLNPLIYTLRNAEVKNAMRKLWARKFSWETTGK
Protocol: as §2, §3

[6] = target: T4, mouse receptor Olfr166 (Mus musculus, UniProt Q0VEL6); experiment: as above; conditions: FIG. 5, Example 5, SEQ ID NO: 8
T4 construct: cAMP HTRF
T4 sequence (Q0VEL6 1-312): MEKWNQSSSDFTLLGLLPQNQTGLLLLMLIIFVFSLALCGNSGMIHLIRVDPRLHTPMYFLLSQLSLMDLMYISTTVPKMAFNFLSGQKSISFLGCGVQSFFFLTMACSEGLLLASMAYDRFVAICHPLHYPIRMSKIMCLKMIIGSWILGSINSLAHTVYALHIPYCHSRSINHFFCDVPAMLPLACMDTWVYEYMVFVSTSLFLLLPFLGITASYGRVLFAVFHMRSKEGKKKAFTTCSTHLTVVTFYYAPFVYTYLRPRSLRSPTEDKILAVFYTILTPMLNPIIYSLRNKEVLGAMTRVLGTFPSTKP
Protocol: as §2, §3

[7] = target: T5, mouse receptor Olfr169 (Mus musculus, UniProt Q7TS53); experiment: as above; conditions: FIG. 5, Example 5, SEQ ID NO: 10
T5 construct: cAMP HTRF
T5 sequence (Q7TS53 1-313): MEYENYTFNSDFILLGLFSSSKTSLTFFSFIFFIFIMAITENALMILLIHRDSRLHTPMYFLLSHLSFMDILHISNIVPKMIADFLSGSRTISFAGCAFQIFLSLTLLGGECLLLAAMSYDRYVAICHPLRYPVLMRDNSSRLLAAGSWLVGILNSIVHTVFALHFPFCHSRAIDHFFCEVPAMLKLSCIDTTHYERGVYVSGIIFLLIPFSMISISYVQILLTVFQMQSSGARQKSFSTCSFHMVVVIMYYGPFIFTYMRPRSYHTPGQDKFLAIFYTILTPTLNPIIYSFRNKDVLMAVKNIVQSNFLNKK
Protocol: as §2, §3

[8] = target: T6, mouse receptor Olfr738 (Mus musculus, UniProt L7N1X7); experiment: as above; conditions: FIG. 5, Example 5, SEQ ID NO: 12
T6 construct: cAMP HTRF
T6 sequence (L7N1X7 1-311): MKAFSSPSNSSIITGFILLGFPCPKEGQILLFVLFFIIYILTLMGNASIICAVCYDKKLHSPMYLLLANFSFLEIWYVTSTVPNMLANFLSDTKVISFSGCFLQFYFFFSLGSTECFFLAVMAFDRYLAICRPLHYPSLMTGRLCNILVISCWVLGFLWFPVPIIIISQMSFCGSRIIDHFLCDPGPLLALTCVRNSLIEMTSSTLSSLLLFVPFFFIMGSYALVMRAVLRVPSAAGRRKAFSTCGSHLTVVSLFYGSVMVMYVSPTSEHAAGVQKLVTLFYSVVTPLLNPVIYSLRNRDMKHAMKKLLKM
Protocol: as §2, §3

[9] = target: T7, mouse receptor Olfr742 (Mus musculus, UniProt A2RTP5); experiment: as above; conditions: FIG. 5, Example 5, SEQ ID NO: 14
T7 construct: cAMP HTRF
T7 sequence (A2RTP5 1-311): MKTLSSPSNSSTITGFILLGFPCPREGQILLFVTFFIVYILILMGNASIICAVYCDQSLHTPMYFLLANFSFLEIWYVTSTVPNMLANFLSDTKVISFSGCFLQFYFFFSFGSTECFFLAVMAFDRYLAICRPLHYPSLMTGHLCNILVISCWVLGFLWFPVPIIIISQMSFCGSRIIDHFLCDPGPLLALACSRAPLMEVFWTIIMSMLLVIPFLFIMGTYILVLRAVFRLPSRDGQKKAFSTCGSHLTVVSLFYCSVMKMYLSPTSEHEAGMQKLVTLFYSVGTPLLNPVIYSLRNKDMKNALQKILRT
Protocol: as §2, §3

[10] = system: mouse receptor Olfr1193, Olfr1093, Olfr1097, Olrf166, Olfr169, Olfr738 and Olfr742, and human receptor OR4S2 and OR52N5; experiment: cAMP HTRF dose-response assay in HEK293T cells expressing odorant receptors (Example 2); type: cell-based; conditions: increasing concentrations of odorant, receptors co-transfected with human Golf
[11] = system: Olfr169; experiment: cAMP HTRF dose-response assay (Example 5), Olfr169; type: cell-based, mouse; conditions: increasing concentration
Protocol: as §1

[12] = target: T8, OR4S2 (Homo sapiens, UniProt Q8NH73); experiment: cAMP HTRF dose-response assay (Example 5), OR4S2; type: cell-based; design: expressed in transfected cells; conditions: increasing concentration
T8 sequence (Q8NH73 1-311): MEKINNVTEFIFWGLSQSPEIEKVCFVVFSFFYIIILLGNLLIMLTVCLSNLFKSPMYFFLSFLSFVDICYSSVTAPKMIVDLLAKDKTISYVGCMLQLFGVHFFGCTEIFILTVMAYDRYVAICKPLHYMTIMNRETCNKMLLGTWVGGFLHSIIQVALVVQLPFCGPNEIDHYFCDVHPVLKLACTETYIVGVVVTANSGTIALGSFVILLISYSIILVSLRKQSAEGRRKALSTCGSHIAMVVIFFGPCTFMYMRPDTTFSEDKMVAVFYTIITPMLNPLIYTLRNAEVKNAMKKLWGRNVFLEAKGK
Protocol: as §1

| Structure (SMILES) | receptor activity (cAMP increase) [1] | activity upon exposure in mock transfected cells [2] | EC50 [3] [µM] | EC50 [4] [µM] | EC50 [5] [µM] | EC50 [6] [µM] | EC50 [7] [µM] | EC50 [8] [µM] | EC50 [9] [µM] | receptor activity (cAMP increase in the cytosol) [10] | response to butyric acid (cAMP) [11] | response to butyric acid (cAMP) [12] |
| --- | --- | --- | --- | --- | --- | --- | --- | --- | --- | --- | --- | --- |
| CSSC [DMDS, dimethyl disulfide] | strong dose-dependent increase of the receptor activity | did not show activity | 458 | 87 | 40 | 12 | 102 | 355 | 69 |  |  |  |
| CCCC(=O)O [butyric acid] |  |  |  |  |  |  |  |  |  | not | weak response | weak response |

Reference: patent publication US11787847B2, “Method of identifying malodor modulating compounds” (FIRMENICH SA, priority 2017, dated 2023)
